Molecular target: T1, ESRRA (Homo sapiens, UniProt P11474)
T1 construct: endogenous in cells; host or cells: HCC38 CD44hi cells (FACS-sorted from bulk HCC38, 2D culture)
T1 sequence (P11474 1-423): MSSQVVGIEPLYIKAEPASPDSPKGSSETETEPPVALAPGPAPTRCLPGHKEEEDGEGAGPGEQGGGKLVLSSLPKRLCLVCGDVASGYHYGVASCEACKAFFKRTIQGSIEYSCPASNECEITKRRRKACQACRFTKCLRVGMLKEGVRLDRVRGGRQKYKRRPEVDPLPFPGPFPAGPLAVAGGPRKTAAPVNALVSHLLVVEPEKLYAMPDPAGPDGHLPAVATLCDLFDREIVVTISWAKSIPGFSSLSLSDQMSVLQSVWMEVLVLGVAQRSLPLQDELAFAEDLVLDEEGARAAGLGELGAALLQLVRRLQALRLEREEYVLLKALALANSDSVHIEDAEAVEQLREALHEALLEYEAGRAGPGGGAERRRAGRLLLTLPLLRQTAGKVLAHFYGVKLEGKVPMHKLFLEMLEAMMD
Test: Western blot of CDH1 expression after ESRRA inhibitor (C14) treatment of HCC38 CD44hi cells
Format: cell-based
Conditions: 2D cultured HCC38 CD44hi cells; 5 and 10 M; 48 hours post-treatment; vs DMSO vehicle; n=3 biological replicates; p≤0.05
Method: In parallel, HCC38 CD44^hi cells were also treated with an ESRRA inhibitor ((2-Aminophenyl)(1-(3-isopropylphenyl)-1H-1,2,3-triazol-4-yl)methanone) (BLD Pharm, China, Cat no. BD01201330) (referred to as Compound 14 (C14) herein) at 5 and 10 M concentrations. Vehicle controls were treated with DMSO. Cells were harvested 48 hours post-treatment and processed for protein extraction which were studied for changes in ESRRA and CDH1 expression using western blot (n=3 biological replicates).
Western Blotting: Proteins were extracted from control and treated cells using ice cold modified RIPA buffer (50 mM Tris-HCl pH 7.5, 150 mM NaCl, 1 mM EDTA, 1 mM EGTA, 1% Triton X-100, 0.1% SDS with supplemented with 1× protease and phosphatase inhibitor cocktails). The lysates were sonicated using a QSONICA Q55 probe sonicator at […] for 20 seconds in an ice bath. This whole cell lysate was centrifuged at 14,000×g for 10 min at 4° C. and stored in −80° C. until further use. Proteins were quantified using the Pierce™ BCA Protein Assay Kit (Cat. 23227, Thermo Fisher Scientific, USA) as per the manufacturer's instructions. […]
Next, membranes were incubated with appropriate HRP-conjugated secondary antibodies. […] The signal intensity of the bands in western blots was quantified using Image Studio Lite version 5.2 (LI-COR Biotechnology, USA).

- CDH1 expression (western blot, relative fold-change): significant increase
Compound: CC(C)c1cccc(-n2cc(C(=O)c3ccccc3N)nn2)c1 [ESRRA antagonist, (2-Aminophenyl)(1-(3-isopropylphenyl)-1H-1,2,3-triazol-4-yl)methanone]
